# According to paper PMC9286316, “Importance of the Cyclic Cystine Knot Structural Motif for Immunosuppressive Effects of Cyclotides” (ACS Chemical Biology, 2021):
# Test system: human PBMCs
# Experiment: Lymphocyte proliferation assay (CFSE, anti-CD3/anti-CD28 stimulated PBMC, flow cytometry)
# Type: cell-based
# Conditions: 72 h; for antiproliferative activity (Figure 2B): tested concentration range 1–100 μg/mL peptide, three biological replicates
# Experimental: Blood of healthy donors was obtained from the Blood Transfusion Centre (University Medical Centre Freiburg, Freiburg Germany), and all experiments conducted on human material were approved by the ethics committee of the University Freiburg (55/14). Venous blood was centrifuged to isolate peripheral blood mononuclear cells on a LymphoPrep gradient (density: 1.077 g/cm^3, 20 min, 500 × g, 20 °C; Progen, Heidelberg, Germany). PBMCs were collected and washed twice with phosphate buffer saline (PBS; GE Healthcare, München), and cell viability and concentration were determined using the trypan blue exclusion test. Cells were cultured in RPMI 1640 medium supplemented with 10% heat-inactivated fetal calf serum, 2 mM L-glutamine, 100 U/mL penicillin, and […] streptomycin (all from Life Technologies, Paisley, UK) and cultured at 37 °C in a humidified incubator with a 5% CO2/95% air atmosphere.
# Harvested PBMC were washed twice in cold PBS and resuspended in PBS at a concentration of 5 × 10^6 cells per mL. Carboxyfluorescein diacetate succinimidyl ester (CFSE; 5 μM; Sigma-Aldrich, St. Louis, MO) staining was performed to determine T-cell proliferation. Cells were stained with CFSE and incubated for 10 min at 37 °C. The staining reaction was stopped by washing twice with complete growth medium. Afterward, stained cells were stimulated with anti-human CD3 (clone OKT3) and anti-human CD28 (clone 28.6) mAbs (each 100 ng/mL; both from eBioscience, Frankfurt, Germany) treated as indicated in the figure legends, with medium alone, cyclosporine A (CsA; 5 μg/mL, purity ≥99%, Sandimmun 50 mg/mL, Novartis Pharma, Basel, Switzerland), camptothecin (CPT; 300 μM; purity >98%; Tocris, Bristol, UK), or in the presence of the indicated concentrations of peptides for 72 h at 37 °C in a humidified incubator with a 5% CO2/95% air atmosphere. Cell division progress was analyzed by flow cytometric analysis using a FACS Calibur analyzer (BD Bioscience, Becton Dickinson, Franklin Lakes, NJ). Data were generated using FlowJo software. For further analysis of FACS raw data Microsoft Excel and SPSS software (IBM, Version 22.0, Armonk, USA) were applied. All bioactivity data are represented as mean ± standard deviation (SD) for the indicated number of independent experiments. Statistical significance was determined by a one-way ANOVA followed by Dunnett’s post hoc pairwise comparisons. The asterisks (*p < 0.05, **p < 0.01, ***p < 0.001) represent significant differences from the respective control.
Compound,antiproliferative activity (Figure 2B),"antiproliferative activity (Figure 1D) (tested concentration range up to 10 μM (∼29 μg/mL), mean ± SD of three biological replicates relative to stimulated control)"
CC(C)C[C@@H]1NC(=O)CNC(=O)[C@H](CC(N)=O)NC(=O)[C@H](CCCNC(=N)N)NC(=O)[C@H]([C@@H](C)O)NC(=O)[C@H](CSCC(N)=O)NC(=O)[C@H](C(C)C)NC(=O)[C@@H]2CCCN2C(=O)[C@H](Cc2c[nH]c3ccccc23)NC(=O)[C@H](CO)NC(=O)[C@H](CSCC(N)=O)NC(=O)[C@H](CCCCN)NC(=O)[C@H](CSCC(N)=O)NC(=O)CNC(=O)[C@@H]2CCCN2C(=O)[C@H]([C@@H](C)O)NC(=O)[C@H](CC(N)=O)NC(=O)[C@H](CSCC(N)=O)NC(=O)[C@H]([C@@H](C)O)NC(=O)CNC(=O)CNC(=O)[C@H](C(C)C)NC(=O)[C@H](CSCC(N)=O)NC(=O)[C@H]([C@@H](C)O)NC(=O)[C@H](CCC(=O)O)NC(=O)CNC(=O)[C@H](CSCC(N)=O)NC(=O)[C@H](C(C)C)NC(=O)[C@@H]2CCCN2C1=O [T20K-Acm],total loss of antiproliferative activity,–
CCN1C(=O)CC(SC[C@@H]2NC(=O)CNC(=O)[C@@H]3CCCN3C(=O)[C@H]([C@@H](C)O)NC(=O)[C@H](CC(N)=O)NC(=O)[C@H](CSC3CC(=O)N(CC)C3=O)NC(=O)[C@H]([C@@H](C)O)NC(=O)CNC(=O)CNC(=O)[C@H](C(C)C)NC(=O)[C@H](CSC3CC(=O)N(CC)C3=O)NC(=O)[C@H]([C@@H](C)O)NC(=O)[C@H](CCC(=O)O)NC(=O)CNC(=O)[C@H](CSC3CC(=O)N(CC)C3=O)NC(=O)[C@H](C(C)C)NC(=O)[C@@H]3CCCN3C(=O)[C@H](CC(C)C)NC(=O)CNC(=O)[C@H](CC(N)=O)NC(=O)[C@H](CCCNC(=N)N)NC(=O)[C@H]([C@@H](C)O)NC(=O)[C@H](CSC3CC(=O)N(CC)C3=O)NC(=O)[C@H](C(C)C)NC(=O)[C@@H]3CCCN3C(=O)[C@H](Cc3c[nH]c4ccccc34)NC(=O)[C@H](CO)NC(=O)[C@H](CSC3CC(=O)N(CC)C3=O)NC(=O)[C@H](CCCCN)NC2=O)C1=O (stereo partly shown) [T20K-Nem],total loss of antiproliferative activity,–
CSSC[C@@H]1NC(=O)CNC(=O)[C@@H]2CCCN2C(=O)[C@H]([C@@H](C)O)NC(=O)[C@H](CC(N)=O)NC(=O)[C@H](CSSC)NC(=O)[C@H]([C@@H](C)O)NC(=O)CNC(=O)CNC(=O)[C@H](C(C)C)NC(=O)[C@H](CSSC)NC(=O)[C@H]([C@@H](C)O)NC(=O)[C@H](CCC(=O)O)NC(=O)CNC(=O)[C@H](CSSC)NC(=O)[C@H](C(C)C)NC(=O)[C@@H]2CCCN2C(=O)[C@H](CC(C)C)NC(=O)CNC(=O)[C@H](CC(N)=O)NC(=O)[C@H](CCCNC(=N)N)NC(=O)[C@H]([C@@H](C)O)NC(=O)[C@H](CSSC)NC(=O)[C@H](C(C)C)NC(=O)[C@@H]2CCCN2C(=O)[C@H](Cc2c[nH]c3ccccc23)NC(=O)[C@H](CO)NC(=O)[C@H](CSSC)NC(=O)[C@H](CCCCN)NC1=O [T20K-S-methyl],total loss of antiproliferative activity,–
GLPVCGETCVGGTCNTPGCKCSWPVCTR↓N (head to tail) [cyclic reduced T20K],–,lost activity
